According to publication PMC5690597, “Suppression and resolution of autoimmune arthritis by rhesus θ-defensin-1, an immunomodulatory macrocyclic peptide” (PLoS ONE, 2017):

Tested on: DA/OlaHsd rats with pristane-induced arthritis
Assay: Pristane-induced arthritis (PIA), established disease (AS ≥ 3)
Assay type: in vivo, rat
Details: for effect on arthritis progression by day 3 of treatment compared to vehicle controls: MTX 0.25 mg/kg i.p. q3d, etanercept 0.4 mg/kg s.c. q3d, P < 0.05; for rate of complete disease resolution on day 11, comparison with RA drugs: RTD-1 s.c. (4 of 16), MTX 0.25 mg/kg i.p. q3d (1 of 22), etanercept 0.4 mg/kg s.c. q3d (0 of 21), saline 0 of 19, 2 independent experiments
Method: Female DA/OlaHsd (D blood group allele and Agouti, also known as Dark Agouti), rats were obtained from Harlan Laboratories (Indianapolis, IN). Animals were allowed to acclimate for 48–72 hours prior to experimental use. Animals were fed standard chow ad lib during a 12-hour day/night cycle. PIA was induced in 5–7 week old animals (90–100 gm) by intradermal injection of 250 μl pristane (Sigma) divided into 3–5 sites at the base of the tail. Animals were monitored daily and disease severity of each limb was scored 0–4 using the method of Brand et al.. The severity scores for all limbs of individual animals were totaled to give an individual’s arthritis severity score (AS) ranging from zero for normal animals to maximum disease score of sixteen. […] In three separate trials, treatment was also blinded to scorers. […] Treatment with saline (vehicle), RTD-1, or anti-arthritic agents was randomized and initiated when an animal first presented with an AS of 3 or more. RTD-1 was administered subcutaneously with doses ranging from 0.2 to 5.0 mg/kg in an injection volume of 0.5 ml at intervals ranging from once a day (qd) to once every seven days (q7d). MTX was administered at 0.25 mg/kg by intraperitoneal injection q3d. Etanercept was administered at 0.4 mg/kg by subcutaneous injection q3d.

## Etanercept [reference compound]
  effect on arthritis progression by day 3 of treatment compared to vehicle controls: limited the progression of arthritis
  rate of complete disease resolution on day 11, comparison with RA drugs: 0%

## CN(Cc1cnc2nc(N)nc(N)c2n1)c1ccc(C(=O)N[C@@H](CCC(=O)O)C(=O)O)cc1 [MTX, Methotrexate, reference compound]
  effect on arthritis progression by day 3 of treatment compared to vehicle controls: limited the progression of arthritis
  rate of complete disease resolution on day 11, comparison with RA drugs: 4.5%
